Consider 28 molecules from patent US11524938B2, “Aromatic sulfonamide derivatives” (Bayer Pharma Aktiengesellschaft, priority 2016, dated 2022).

Where “and” joins values, the source holds several entries; their conditions need not be identical. Equal entries are not always repeated.

In the assay the target is T1, human P2X4 (Homo sapiens, UniProt Q99571).
T1 sequence (Q99571 1-388): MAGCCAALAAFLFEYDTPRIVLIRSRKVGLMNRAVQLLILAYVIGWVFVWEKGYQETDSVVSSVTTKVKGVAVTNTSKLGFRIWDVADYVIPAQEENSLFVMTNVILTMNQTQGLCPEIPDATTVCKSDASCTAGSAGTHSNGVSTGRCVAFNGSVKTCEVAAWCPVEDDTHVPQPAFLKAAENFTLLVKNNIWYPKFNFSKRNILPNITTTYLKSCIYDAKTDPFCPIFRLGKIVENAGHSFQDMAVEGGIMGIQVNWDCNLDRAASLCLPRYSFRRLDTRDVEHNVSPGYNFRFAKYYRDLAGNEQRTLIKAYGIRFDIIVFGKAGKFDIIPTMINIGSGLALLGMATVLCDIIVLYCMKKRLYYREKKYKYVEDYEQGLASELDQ
The assay is described as follows: Human P2X4 HEK Cell FLIPR Assay. The class given is cell-based. The note with it: agonist Bz-ATP at EC80; for Emax: HEK293, HEK293 cells, percentage of maximal inhibition, read-out: Human P2X4 HEK Cells (FLIPR Assay) avg Efficacy [%]; for IC50: HEK293 cells, individual values listed where some fall outside detection range. In short, it runs like this: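 Calcium flux read by FLIPR for 120 sec after Bz-ATP challenge at EC80 (established each assay day), following 30 min room-temperature compound preincubation in dye-loaded stable human P2X4 HEK293 cells. Peak RFU over basal normalized to agonist control; IC50, maximal inhibition and Hill coefficient from triplicate means.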

Consider `CC(C)c1cnn(-c2ccc(NC(=O)Cc3ccccc3Cl)cc2S(N)(=O)=O)c1` [Example 516, 2-(2-Chlorophenyl)-N-[4-(4-isopropyl-1H-pyrazol-1-yl)-3-sulfamoylphenyl]acetamide], for which the Emax worked out at 68% and the half-maximal inhibitory concentration (IC50) (usually the point on the concentration scale where inhibition reaches its midpoint) came to 96 nM.
Take `CC(C)c1cnn(-c2ccc(NC(=O)Cc3ccccc3F)cc2S(N)(=O)=O)c1` [Example 517, 2-(2-Fluorophenyl)-N-[4-(4-isopropyl-1H-pyrazol-1-yl)-3-sulfamoylphenyl]acetamide]: the Emax was 74% and the IC50 was found to be 187 nM.
With `NS(=O)(=O)c1cc(NC(=O)Cc2ccccc2Cl)ccc1-n1cc(CC(F)(F)F)cn1` [Example 518, 2-(2-Chlorophenyl)-N-{3-sulfamoyl-4-[4-(2,2,2-trifluoroethyl)-1H-pyrazol-1-yl]phenyl}acetamide], the Emax was found to be 80% and the IC50 came to 36 nM.
As to `NS(=O)(=O)c1cc(NC(=O)Cc2ccccc2F)ccc1-n1cc(CC(F)(F)F)cn1` [Example 519, 2-(2-Fluorophenyl)-N-{3-sulfamoyl-4-[4-(2,2,2-trifluoroethyl)-1H-pyrazol-1-yl]phenyl}acetamide], the Emax stood at 82% and the half-inhibitory concentration (IC50) amounted to 105 nM.
Regarding `NS(=O)(=O)c1cc(NC(=O)Cc2ccccc2Cl)ccc1-c1noc(C2CC2)n1` [Example 520, 2-(2-Chlorophenyl)-N-[4-(5-cyclopropyl-1,2,4-oxadiazol-3-yl)-3-sulfamoylphenyl]acetamide], the Emax turned out to be 76% and the IC50 came out at 43 nM.
In the case of `NS(=O)(=O)c1cc(NC(=O)Cc2ccccc2Cl)ccc1-c1nc(C(F)(F)F)no1` [Example 521, 2-(2-Chlorophenyl)-N-{3-sulfamoyl-4-[3-(trifluoromethyl)-1,2,4-oxadiazol-5-yl]phenyl}acetamide], the Emax was found to be 52%; the IC50 was 6.9 µM and 17.2 µM and > 25 µM (4×).
Take `NS(=O)(=O)c1cc(NC(=O)Cc2ccccc2Cl)ccc1-c1nnc(C(F)F)o1` [Example 522, 2-(2-Chlorophenyl)-N-{4-[5-(difluoromethyl)-1,3,4-oxadiazol-2-yl]-3-sulfamoylphenyl}acetamide]: the Emax worked out at 87% and the IC50 was found to be 71 nM.
For `NS(=O)(=O)c1cc(NC(=O)Cc2ccccc2F)ccc1-c1nnc(C(F)F)o1` [Example 523, N-{4-[5-(Difluoromethyl)-1,3,4-oxadiazol-2-yl]-3-sulfamoylphenyl}-2-(2-fluorophenyl)acetamide], the Emax was 89% and the IC50 turned out to be 149 nM.
Turning to `Cc1nnc(-c2ccc(NC(=O)Cc3ccccc3Cl)cc2S(N)(=O)=O)o1` [Example 524, 2-(2-Chlorophenyl)-N-[4-(5-methyl-1,3,4-oxadiazol-2-yl)-3-sulfamoylphenyl]acetamide], the Emax worked out at 87% and the half-maximal inhibitory concentration (IC50) worked out at 322 nM.
In the case of `Cc1nnc(-c2ccc(NC(=O)Cc3ccccc3F)cc2S(N)(=O)=O)o1` [Example 525, 2-(2-Fluorophenyl)-N-[4-(5-methyl-1,3,4-oxadiazol-2-yl)-3-sulfamoylphenyl]acetamide], the Emax was 72% and the IC50 came to 5170 nM.
Regarding `Cc1ccc(CC(=O)Nc2ccc(-c3nnc(C)o3)c(S(N)(=O)=O)c2)cc1` [Example 526, N-[4-(5-Methyl-1,3,4-oxadiazol-2-yl)-3-sulfamoylphenyl]-2-(4-methylphenyl)acetamide], the Emax amounted to 51% and the IC50 was determined as 331 nM.
In the same order, the values of `NS(=O)(=O)c1cc(NC(=O)Cc2ccccc2Cl)ccc1-c1cc[nH]c1` [Example 527, 2-(2-Chlorophenyl)-N-[4-(1H-pyrrol-3-yl)-3-sulfamoylphenyl]acetamide] are 86% and 125 nM.
On to `NS(=O)(=O)c1cc(NC(=O)Cc2ccccc2Cl)ccc1-c1c[nH]c(C(=O)C(F)F)c1` [Example 528, 2-(2-Chlorophenyl)-N-{4-[5-(difluoroacetyl)-1H-pyrrol-3-yl]-3-sulfamoylphenyl}acetamide], for which the Emax came to 95% and the IC50 was 42 nM.
`Cn1ccc(-c2ccc(NC(=O)Cc3ccccc3Cl)cc2S(N)(=O)=O)c1` [Example 529, 2-(2-Chlorophenyl)-N-[4-(1-methyl-1H-pyrrol-3-yl)-3-sulfamoylphenyl]acetamide]: the Emax is 92% and the IC50 was 72 nM.
For the molecule `Cn1c(C#N)ccc1-c1ccc(NC(=O)Cc2ccccc2Cl)cc1S(N)(=O)=O` [Example 530, 2-(2-Chlorophenyl)-N-[4-(5-cyano-1-methyl-1H-pyrrol-2-yl)-3-sulfamoylphenyl]acetamide], the Emax came to 112% and the IC50 stood at 33 nM.
On to `NS(=O)(=O)c1c(-n2cc(C(F)(F)F)cn2)ccc(NC(=O)Cc2ccccc2Cl)c1C(F)(F)F` [Example 531, 2-(2-Chlorophenyl)-N-{3-sulfamoyl-2-(trifluoromethyl)-4-[4-(trifluoromethyl)-1H-pyrazol-1-yl]phenyl}acetamide], for which the Emax amounted to 84% and the IC50 stood at 2320 nM.
For `NS(=O)(=O)c1cc(NC(=O)Cc2ccccc2Cl)c(C(F)(F)F)cc1-n1cc(C(F)(F)F)cn1` [Example 532, 2-(2-Chlorophenyl)-N-{5-sulfamoyl-2-(trifluoromethyl)-4-[4-(trifluoromethyl)-1H-pyrazol-1-yl]phenyl}acetamide], the Emax came to 60%; the IC50 is 11500 nM and 12900 nM and 17000 nM.
In the case of `NS(=O)(=O)c1cc(NC(=O)Cc2cccc(C(F)(F)F)c2Cl)c(C(F)(F)F)cc1-n1cc(C(F)(F)F)cn1` [Example 533, 2-[2-Chloro-3-(trifluoromethyl)phenyl]-N-{5-sulfamoyl-2-(trifluoromethyl)-4-[4-(trifluoromethyl)-1H-pyrazol-1-yl]phenyl}acetamide], the Emax amounted to 26% and the IC50 is greater than 25000 nM.
In the case of `NS(=O)(=O)c1cc(NC(=O)Cc2cc(C(F)(F)F)ccc2Cl)c(C(F)(F)F)cc1-n1cc(C(F)(F)F)cn1` [Example 534, 2-[2-Chloro-5-(trifluoromethyl)phenyl]-N-{5-sulfamoyl-2-(trifluoromethyl)-4-[4-(trifluoromethyl)-1H-pyrazol-1-yl]phenyl}acetamide], the Emax came to 17% and the IC50 was greater than 25000 nM.
With `NS(=O)(=O)c1cc(NC(=O)Cc2c(Cl)cccc2C(F)(F)F)c(C(F)(F)F)cc1-n1cc(F)cn1` [Example 535, 2-[2-Chloro-6-(trifluoromethyl)phenyl]-N-[4-(4-fluoro-1H-pyrazol-1-yl)-5-sulfamoyl-2-(trifluoromethyl)phenyl]acetamide], the Emax was 91% and the IC50 was found to be 3840 nM.
`NS(=O)(=O)c1cc(NC(=O)Cc2cccc(C(F)(F)F)c2Cl)c(C(F)(F)F)cc1-n1cc(F)cn1` [Example 536, 2-[2-Chloro-3-(trifluoromethyl)phenyl]-N-[4-(4-fluoro-1H-pyrazol-1-yl)-5-sulfamoyl-2-(trifluoromethyl)phenyl]acetamide]: the Emax is 67%; the IC50 is 12400 nM and 16800 nM.
For the molecule `NS(=O)(=O)c1cc(NC(=O)Cc2cc(C(F)(F)F)ccc2Cl)c(C(F)(F)F)cc1-n1cc(F)cn1` [Example 537, 2-[2-Chloro-5-(trifluoromethyl)phenyl]-N-[4-(4-fluoro-1H-pyrazol-1-yl)-5-sulfamoyl-2-(trifluoromethyl)phenyl]acetamide], the Emax stood at 95% and the IC50 is 3620 nM.
On to `NS(=O)(=O)c1cc(NC(=O)Cc2ccc(C(F)(F)F)cc2Cl)c(C(F)(F)F)cc1-n1cc(F)cn1` [Example 538, 2-[2-Chloro-4-(trifluoromethyl)phenyl]-N-[4-(4-fluoro-1H-pyrazol-1-yl)-5-sulfamoyl-2-(trifluoromethyl)phenyl]acetamide], for which the Emax was determined as 83% and the IC50 was 3910 nM.
Take `CC(C)(C)c1nn(-c2ccc(NC(=O)Cc3ccccc3Cl)cc2S(N)(=O)=O)cc1C#N` [Example 539, N-[4-(3-tert-Butyl-4-cyano-1H-pyrazol-1-yl)-3-sulfamoylphenyl]-2-(2-chlorophenyl)acetamide]: the Emax turned out to be 103% and the IC50 was 127 nM.
On to `N#Cc1cn(-c2ccc(NC(=O)Cc3ccccc3Cl)cc2S(N)(=O)=O)nc1Br` [Example 540, N-[4-(3-Bromo-4-cyano-1H-pyrazol-1-yl)-3-sulfamoylphenyl]-2-(2-chlorophenyl)acetamide], for which the Emax was 79% and the IC50 came out at 1 nM.
As to `NS(=O)(=O)c1cc(NC(=O)Cc2ccccc2Cl)ccc1-n1cc(Cl)c(C(F)(F)F)n1` [Example 541, 2-(2-Chlorophenyl)-N-{4-[4-chloro-3-(trifluoromethyl)-1H-pyrazol-1-yl]-3-sulfamoylphenyl}acetamide], the Emax is 50% and the IC50 is greater than 25000 nM.
For `Cc1cn(-c2ccc(NC(=O)Cc3ccccc3Cl)cc2S(N)(=O)=O)nc1C` [Example 542, 2-(2-Chlorophenyl)-N-[4-(3,4-dimethyl-1H-pyrazol-1-yl)-3-sulfamoylphenyl]acetamide], the Emax turned out to be 97% and the IC50 came to 20 nM.
Turning to `Cc1nn(-c2ccc(NC(=O)Cc3ccccc3Cl)cc2S(N)(=O)=O)c(C)c1Cl` [Example 543, N-[4-(4-Chloro-3,5-dimethyl-1H-pyrazol-1-yl)-3-sulfamoylphenyl]-2-(2-chlorophenyl)acetamide], the Emax turned out to be 98% and the 50% inhibitory concentration (IC50) was 267 nM.
